Read-outs that look alike come from different tables or passages of the source. Values belong to the molecule of their own block, whether it stands above or below them.
Experiments:
[1] = in vitro penetration of levonorgestrel across hairless mouse skin, modified Franz diffusion cell
Text: In the examples, the steady state rate of penetration, or flux, is indicated by the symbol: Jss. The cumulative amount of drug penetrated is indicated by the Symbol: Q. The lag period to reach steady state is indicated by the symbol: tL. The standard deviation for statistical purposes is abbreviated: S.D. The standard error of the mean for statistical purposes is abbreviated S.E.M. Abbreviation "g" denotes grams, "mg" denotes milligram, "mcg" denotes micrograms and "ng" denotes nanograms.
Initially, twelve amino acids were selected for evaluation of their effect on the rate of penetration of levonorgestrel through hairless mouse skin. Differing amino acids were selected according to the structure of their side chain so that at least one amino acid from each of the seven different chemical groups was studied. […] These were incorporated into transdermal drug formulations and the corresponding rates of penetration were determined. […] A total of 36 out of a possible 48 formulations were evaluated. The effect of amino acid, pH and ionic species on the rate of penetration was then analyzed.
The amino acids were dissolved in distilled water and the pH was adjusted by addition of either 0.1 or 1.ON HCl or 1.0N NaOH. Ethanol was then added to give a final ethanol concentration of 40% w/w. The pH was monitored and recorded. […] 1%(w/w) levonorgestrel was suspended in this solvent system. Suspensions were applied to hairless mouse skin as described above.
The penetration of drug across hairless mouse skin was studied in vitro using a modified Franz diffusion cell apparatus as described by Y. W. Chien, P. R. Keshary, Y. C. Huany and P. P. Sarpotdar in "Comparative Controlled Skin Permeation of Nitroglycerin from Marketed Transdermal Delivery Systems," J. Pharmaceutical Sciences, Vol. 72, No. 8 August 1983, pp. 968-970. […] Samples were withdrawn at predetermined times up to a total of 10 hours.
Subsequently, rates of penetration were also determined (in hairless mouse skin a described above) for Norleucine, Norvaline and α-Amino-n-Butyric Acid.

[2] = pH values at which amino acids were tested; cited from earlier work
[3] = Table II, average of all data at all pH values, amino acid 0.2 M

Jss, steady state rate of penetration of levonorgestrel [1]: 0.8553 mcg/cm^2 /hr
Jss, steady state rate of penetration of levonorgestrel ([1]; pH 4.8): 0.8553 mcg/cm^2 /hr
Structure (SMILES): C[C@H](N)C(=O)O [Alanine, L-Alanine]

Structure (SMILES): N=C(N)NCCC[C@H](N)C(=O)O [Arginine, L-(+)-Arginine]
pHISO (isoelectric pH) [2]: 10.8
Jss, steady state rate of penetration of levonorgestrel [1, 3]: 0.8864 mcg/cm^2 /hr
Jss, steady state rate of penetration of levonorgestrel ([1]; Table VI, at pK2', pH 10.8): 1.012 mcg/cm^2 hr
Jss, steady state rate of penetration of levonorgestrel ([1]; pH 2.9): 0.688 mcg/cm^2 /hr
Jss, steady state rate of penetration of levonorgestrel ([1]; pH 4.2): 0.9590 mcg/cm^2 /hr
Jss, steady state rate of penetration of levonorgestrel ([1]; pH 10.8): 1.012 mcg/cm^2 /hr

Structure (SMILES): N[C@@H](CC(=O)O)C(=O)O [Aspartic Acid, L-(+)-Aspartic Acid]
Jss, steady state rate of penetration of levonorgestrel [1, 3]: 1.1538 mcg/cm^2 /hr
Jss, steady state rate of penetration of levonorgestrel ([1]; pH 4.4): 1.1538 mcg/cm^2 /hr

Structure (SMILES): N[C@@H](CS)C(=O)O [Cysteine, L-(+)-Cysteine]
Jss, steady state rate of penetration of levonorgestrel [1]: 1.6160 mcg/cm^2 /hr
effect on penetration at specific pHs, in words ([1]; Tables III-VI): greatest affect on penetration
overall rate of penetration of levonorgestrel, ranking in words ([1]; average of all pH values, P=0.05): provided the highest rates
Jss, steady state rate of penetration of levonorgestrel ([1]; pH 2.3): 2.154 mcg/cm^2 /hr
rate of penetration of levonorgestrel, ranking in words ([1]; pH 2.3 to 3.2 (pK1')): significantly increased rate
Jss, steady state rate of penetration of levonorgestrel ([1]; pH 4.9): 1.1635 mcg/cm^2 /hr
rate of penetration of levonorgestrel, ranking in words ([1]; pK2' (pH 8.6-10.8)): fastest rate of penetration

Structure (SMILES): N[C@@H](CCC(=O)O)C(=O)O [Glutamic Acid, L-Glutamic Acid]
pHISO (isoelectric pH) [2]: 3.8
Jss, steady state rate of penetration of levonorgestrel ([1]; Table II, average of all data at all pH values, amino acid 0.03 M): 0.8277 mcg/cm^2 /hr
Jss, steady state rate of penetration of levonorgestrel ([1]; Table VI, at pK2', pH 9.9): 0.450 mcg/cm^2 hr
Jss, steady state rate of penetration of levonorgestrel ([1]; pH 3.8): 0.842 mcg/cm^2 /hr
Jss, steady state rate of penetration of levonorgestrel ([1]; pH 4.6): 1.1910 mcg/cm^2 /hr
Jss, steady state rate of penetration of levonorgestrel ([1]; pH 9.9): 0.450 mcg/cm^2 /hr
rate of penetration of levonorgestrel (in words) ([1]; pH between 4.0 and 5.0): relatively high rates of penetration

Structure (SMILES): NCC(=O)O [Glycine]
effect of hundred-fold concentration difference on rate of penetration ([1]; Glycine buffer, previous experimentation): no significant difference in the rate of penetration
Jss, steady state rate of penetration of levonorgestrel ([1]; Table VI, at pK2', pH 9.6): 1.003 mcg/cm^2 hr
Jss, steady state rate of penetration of levonorgestrel ([1]; pH 2.4): 0.557 mcg/cm^2 /hr
Jss, steady state rate of penetration of levonorgestrel ([1]; pH 4.7): 1.2790 mcg/cm^2 /hr
Jss, steady state rate of penetration of levonorgestrel ([1]; pH 6.0): 0.532 mcg/cm^2 /hr
Jss, steady state rate of penetration of levonorgestrel ([1]; pH 9.6): 1.003 mcg/cm^2 /hr

Jss, steady state rate of penetration of levonorgestrel [1]: 1.5542 mcg/cm^2 /hr
effect on penetration at specific pHs, in words [1]: greatest affect on penetration
overall rate of penetration of levonorgestrel, ranking in words [1]: provided the highest rates
rate of penetration of levonorgestrel (in words) [1]: relatively high rates of penetration
Jss, steady state rate of penetration of levonorgestrel ([1]; pH 2.4): 0.921 mcg/cm^2 /hr
Jss, steady state rate of penetration of levonorgestrel ([1]; pH 4.5): 1.3328 mcg/cm^2 /hr
Jss, steady state rate of penetration of levonorgestrel ([1]; pH 6): 3.167 mcg/cm^2 /hr
Structure (SMILES): CC[C@H](C)[C@H](N)C(=O)O [Isoleucine, L-(+)-Isoleucine]

Structure (SMILES): C#C[C@]1(O)CC[C@H]2[C@@H]3CCC4=CC(=O)CC[C@@H]4[C@H]3CC[C@@]21CC [Levonorgestrel, reference compound]
effect of pH on rate of penetration ([1]; amino acid present in the formulation): not affected significantly by changing pH
Average rate of penetration of levonorgestrel in the presence of amino acids ([1]; pH 2.5): 1.0980 mcg/cm^2 /hr
Average rate of penetration of levonorgestrel in the presence of amino acids ([1]; pH 4.5): 1.1279 mcg/cm^2 /hr
Average rate of penetration of levonorgestrel in the presence of amino acids ([1]; pH 6.1): 1.2798 mcg/cm^2 /hr
Average rate of penetration of levonorgestrel in the presence of amino acids ([1]; pH 9.6): 1.0598 mcg/cm^2 /hr

Jss, steady state rate of penetration of levonorgestrel [1]: 0.8462 mcg/cm^2 /hr
Jss, steady state rate of penetration of levonorgestrel ([1]; pH 2.3): 0.765 mcg/cm^2 /hr
Jss, steady state rate of penetration of levonorgestrel ([1]; pH 4.6): 1.0863 mcg/cm^2 /hr
Jss, steady state rate of penetration of levonorgestrel ([1]; pH 6.7): 0.688 mcg/cm^2 /hr
Structure (SMILES): O=C(O)[C@@H]1CCCN1 [Proline, L-(-)-Proline]

Jss, steady state rate of penetration of levonorgestrel [1]: 0.8628 mcg/cm^2 /hr
Jss, steady state rate of penetration of levonorgestrel ([1]; pH 4.7): 1.1287 mcg/cm^2 /hr
Jss, steady state rate of penetration of levonorgestrel ([1]; pH 5.7): 0.896 mcg/cm^2 /hr
Structure (SMILES): N[C@@H](CO)C(=O)O [Serine, L-(-)-Serine]

Jss, steady state rate of penetration of levonorgestrel [1]: 0.6033 mcg/cm^2 /hr
Jss, steady state rate of penetration of levonorgestrel ([1]; pH 3.2): 0.641 mcg/cm^2 /hr
Jss, steady state rate of penetration of levonorgestrel ([1]; pH 4.7): 0.6020 mcg/cm^2 /hr
Jss, steady state rate of penetration of levonorgestrel ([1]; pH 6.5): 0.567 mcg/cm^2 /hr
Structure (SMILES): N[C@@H](Cc1c[nH]c2ccccc12)C(=O)O [Tryptophan, L-(-)-Tryptophan]

Jss, steady state rate of penetration of levonorgestrel [1]: 1.8006 mcg/cm^2 /hr
effect on penetration at specific pHs, in words [1]: greatest affect on penetration
Jss, steady state rate of penetration of levonorgestrel ([1]; pH 2.4): 1.492 mcg/cm^2 /hr
Jss, steady state rate of penetration of levonorgestrel ([1]; pH 4.7): 1.7903 mcg/cm^2 /hr
Jss, steady state rate of penetration of levonorgestrel ([1]; pH 5.9): 2.276 mcg/cm^2 /hr
Structure (SMILES): CC(C)[C@H](N)C(=O)O [Valine, L-(+)-Valine]

— patent publication US4732892A, “L-α-amino acids as transdermal penetration enhancers” (priority 1985, dated 1988)
